From patent US20250154108A1 (priority 2022, published 2025)

Test: in vivo
Design: species or system SD rats
Conditions: male, SD, rat, plasma, po, 1 mg/kg; read-out: Bioavailability F

C[C@H](NC1=CC(=O)C2(CCCC2)C(=O)N1)c1cc(F)ccc1F [Compound of formula (I)]
bioavailability: 123%
